system: LNCaP cells transfected with CN390; assay: steroid hormone specificity of the 1.17-kb hKLK2 enhancer, luciferase reporter; format: cell-based, human; details: FIG. 14
Protocol: To assess the androgen specificity of the hKLK2 enhancer, LNCaP cells transfected with CN390 (1.17-kb “full enhancer activity” hKLK2 enhancer/minimal hKLK2 promoter) were treated with various steroid hormones.

Q: For `CC/C(=C(/CC)c1ccc(O)cc1)c1ccc(O)cc1` [DES], which “induction of luciferase activity by steroid hormone vs cells not treated with hormones” value (“induction … vs cells not treated with hormones” below) is on record?
A: Its value is “little or no inducibility”.

Q: How did the “induction … vs cells not treated with hormones” value turn out when `C[C@@H]1C[C@H]2[C@@H]3CCC4=CC(=O)C=C[C@]4(C)[C@@]3(F)[C@@H](O)C[C@]2(C)[C@@]1(O)C(=O)CO` [DEX] was run?
A: Its value is “little or no inducibility”.

Q: Which “induction … vs cells not treated with hormones” value does the source give for `C[C@]12CCC(=O)C[C@@H]1CC[C@@H]1[C@@H]2CC[C@]2(C)[C@@H](O)CC[C@@H]12` [DHT, dihydrotestosterone] here?
A: Its value is “marked increases in luciferase activity”.

Q: `C[C@]1(O)CC[C@H]2[C@@H]3CCC4=CC(=O)CCC4=C3C=C[C@@]21C` [R1881, methyl trienolone] was tested. Which “induction … vs cells not treated with hormones” value did it give?
A: Its value is “marked increases in luciferase activity”.
